{
  "source": "patent US8952024B2",
  "about": "“Herbicidal pyrimidone derivatives” (E I du Pont de Nemours and Company, priority 2009, dated 2015)",
  "assay_in_all_cases": "Test B pre-/postemergence plant response",
  "assay_type_in_all_cases": "in vivo",
  "key": {"[1]": {"tested_on": "johnsongrass (Sorghum halepense)", "procedure,_shortened": "(§1)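 Ratings reflect visual comparison with untreated controls 13 to 15 days after application, from 0 (no effect) to 100 (complete control). Application was preemergence to seeded loam/sand soil or postemergence to 1- to 4-leaf plants, with compound in a non-phytotoxic, surfactant-containing solvent.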"}, "[2]": {"tested_on": "kochia (Kochia scoparia)", "procedure,_shortened": "as §1"}, "[3]": {"tested_on": "velvetleaf (Abutilon theophrasti)", "procedure,_shortened": "as §1"}, "[4]": {"tested_on": "giant foxtail (Setaria faberii)", "procedure,_shortened": "as §1"}, "[5]": {"tested_on": "corn (Zea mays)", "procedure,_shortened": "as §1"}, "[6]": {"tested_on": "pigweed (Amaranthus retroflexus)", "procedure,_shortened": "as §1"}, "[7]": {"tested_on": "Italian ryegrass (Lolium multiflorum)", "procedure,_shortened": "as §1"}, "[8]": {"tested_on": "woolly cupgrass (Eriochloa villosa)", "procedure,_shortened": "as §1"}, "[9]": {"tested_on": "downy bromegrass (Bromus tectorum)", "procedure,_shortened": "as §1"}, "[10]": {"tested_on": "soybean (Glycine max)", "procedure,_shortened": "as §1"}, "[11]": {"tested_on": "blackgrass (Alopecurus myosuroides)", "procedure,_shortened": "as §1"}, "[12]": {"tested_on": "Surinam grass (Brachiaria decumbens)", "procedure,_shortened": "as §1"}, "[13]": {"tested_on": "ragweed (common ragweed, Ambrosia elatior)", "procedure,_shortened": "as §1"}, "[14]": {"details": "250 g ai/ha, Preemergence, 0 to 100 scale"}, "[15]": {"details": "Postemergence, 62 g ai/ha, scale 0 (no effect) to 100 (complete control), 13 to 15 days"}, "[16]": {"details": "Postemergence, 125 g ai/ha, visual rating after 13 to 15 days, scale 0 (no effect) to 100 (complete control)"}, "[17]": {"details": "Postemergence, 250 g ai/ha, scale 0 to 100 (0 no effect, 100 complete control)"}, "[18]": {"details": "Preemergence, 31 g ai/ha, scale 0 to 100 (0 no effect, 100 complete control)"}, "[19]": {"details": "Preemergence, 62 g ai/ha, scale 0 to 100 (0 no effect, 100 complete control)"}, "[20]": {"details": "Preemergence, 125 g ai/ha, scale 0 to 100, 0 no effect, 100 complete control"}, "[21]": {"details": "31 g ai/ha, postemergence, scale 0 to 100, 0 is no effect, 100 is complete control"}},
  "data": [
    {"smiles": "CCCCc1ncc(C(=O)C2=C(O)CCCC2=O)c(=O)n1-c1cccc(C)c1", "note": "[Compound 63]", "values": [
      {"measurement": "Plant response rating, Johnsongrass", "setting": "[1]; [14]", "value": 60},
      {"measurement": "Plant response rating, Johnsongrass", "setting": "[1]; [15]", "value": 10},
      {"measurement": "Plant response rating, Johnsongrass", "setting": "[1]; [16]", "value": 10},
      {"measurement": "Plant response rating, Johnsongrass", "setting": "[1]; [17]", "value": 15},
      {"measurement": "Plant response rating, Johnsongrass", "setting": "[1]; [18]", "value": 0},
      {"measurement": "Plant response rating, Johnsongrass", "setting": "[1]; [19]", "value": 0},
      {"measurement": "Plant response rating, Johnsongrass", "setting": "[1]; [20]", "value": 55},
      {"measurement": "Plant response rating, Kochia", "setting": "[2]; [21]", "value": 10},
      {"measurement": "Plant response rating, Kochia", "setting": "[2]; [14]", "value": 100},
      {"measurement": "Plant response rating, Kochia", "setting": "[2]; [15]", "value": 25},
      {"measurement": "Plant response rating, Kochia", "setting": "[2]; [16]", "value": 25},
      {"measurement": "Plant response rating, Kochia", "setting": "[2]; [17]", "value": 65},
      {"measurement": "Plant response rating, Kochia", "setting": "[2]; [18]", "value": 0},
      {"measurement": "Plant response rating, Kochia", "setting": "[2]; [19]", "value": 100},
      {"measurement": "Plant response rating, Kochia", "setting": "[2]; [20]", "value": 100},
      {"measurement": "Plant response rating, Velvetleaf", "setting": "[3]; [21]", "value": 95},
      {"measurement": "Plant response rating, Velvetleaf", "setting": "[3]; [15]", "value": 98},
      {"measurement": "Plant response rating, Velvetleaf", "setting": "[3]; [16]", "value": 98},
      {"measurement": "Plant response rating, Velvetleaf", "setting": "[3]; [17]", "value": 98},
      {"measurement": "Plant response rating, Velvetleaf", "setting": "[3]; [18]", "value": 75},
      {"measurement": "Plant response rating, Velvetleaf", "setting": "[3]; [19]", "value": 90},
      {"measurement": "Plant response rating, Velvetleaf", "setting": "[3]; [20]", "value": 100},
      {"measurement": "Plant response rating, Foxtail, Giant", "setting": "[4]; [21]", "value": 60},
      {"measurement": "Plant response rating, Foxtail, Giant", "setting": "[4]; [14]", "value": 10},
      {"measurement": "Plant response rating, Foxtail, Giant", "setting": "[4]; [15]", "value": 65},
      {"measurement": "Plant response rating, Foxtail, Giant", "setting": "[4]; [16]", "value": 65},
      {"measurement": "Plant response rating, Foxtail, Giant", "setting": "[4]; [17]", "value": 80},
      {"measurement": "Plant response rating, Foxtail, Giant", "setting": "[4]; [18]", "value": 0},
      {"measurement": "Plant response rating, Foxtail, Giant", "setting": "[4]; [19]", "value": 0},
      {"measurement": "Plant response rating, Foxtail, Giant", "setting": "[4]; [20]", "value": 0},
      {"measurement": "Plant response rating, Corn", "setting": "[5]; [14]", "value": 0},
      {"measurement": "Plant response rating, Corn", "setting": "[5]; [15]", "value": 20},
      {"measurement": "Plant response rating, Corn", "setting": "[5]; [16]", "value": 25},
      {"measurement": "Plant response rating, Corn", "setting": "[5]; [17]", "value": 45},
      {"measurement": "Plant response rating, Corn", "setting": "[5]; [18]", "value": 0},
      {"measurement": "Plant response rating, Corn", "setting": "[5]; [19]", "value": 0},
      {"measurement": "Plant response rating, Corn", "setting": "[5]; [20]", "value": 0},
      {"measurement": "Plant response rating, Pigweed", "setting": "[6]; [21]", "value": 85},
      {"measurement": "Plant response rating, Pigweed", "setting": "[6]; [15]", "value": 95},
      {"measurement": "Plant response rating, Pigweed", "setting": "[6]; [16]", "value": 95},
      {"measurement": "Plant response rating, Pigweed", "setting": "[6]; [17]", "value": 100},
      {"measurement": "Plant response rating, Pigweed", "setting": "[6]; [18]", "value": 95},
      {"measurement": "Plant response rating, Pigweed", "setting": "[6]; [19]", "value": 98},
      {"measurement": "Plant response rating, Pigweed", "setting": "[6]; [20]", "value": 100},
      {"measurement": "Plant response rating, Ryegrass, Italian", "setting": "[7]; [21]", "value": 0},
      {"measurement": "Plant response rating, Ryegrass, Italian", "setting": "[7]; [15]", "value": 0},
      {"measurement": "Plant response rating, Ryegrass, Italian", "setting": "[7]; [16]", "value": 0},
      {"measurement": "Plant response rating, Ryegrass, Italian", "setting": "[7]; [17]", "value": 10},
      {"measurement": "Plant response rating, Ryegrass, Italian", "setting": "[7]; [18]", "value": 0},
      {"measurement": "Plant response rating, Ryegrass, Italian", "setting": "[7]; [19]", "value": 0},
      {"measurement": "Plant response rating, Ryegrass, Italian", "setting": "[7]; [20]", "value": 0},
      {"measurement": "Plant response rating, Cupgrass, Woolly", "setting": "[8]; [21]", "value": 50},
      {"measurement": "Plant response rating, Cupgrass, Woolly", "setting": "[8]; [14]", "value": 10},
      {"measurement": "Plant response rating, Cupgrass, Woolly", "setting": "[8]; [15]", "value": 60},
      {"measurement": "Plant response rating, Cupgrass, Woolly", "setting": "[8]; [16]", "value": 65},
      {"measurement": "Plant response rating, Cupgrass, Woolly", "setting": "[8]; [17]", "value": 65},
      {"measurement": "Plant response rating, Cupgrass, Woolly", "setting": "[8]; [18]", "value": 0},
      {"measurement": "Plant response rating, Cupgrass, Woolly", "setting": "[8]; [19]", "value": 0},
      {"measurement": "Plant response rating, Cupgrass, Woolly", "setting": "[8]; [20]", "value": 0},
      {"measurement": "Plant response rating, Bromegrass, Downy", "setting": "[9]; [21]", "value": 10},
      {"measurement": "Plant response rating, Bromegrass, Downy", "setting": "[9]; [14]", "value": 0},
      {"measurement": "Plant response rating, Bromegrass, Downy", "setting": "[9]; [15]", "value": 20},
      {"measurement": "Plant response rating, Bromegrass, Downy", "setting": "[9]; [16]", "value": 20},
      {"measurement": "Plant response rating, Bromegrass, Downy", "setting": "[9]; [17]", "value": 40},
      {"measurement": "Plant response rating, Bromegrass, Downy", "setting": "[9]; [18]", "value": 0},
      {"measurement": "Plant response rating, Bromegrass, Downy", "setting": "[9]; [19]", "value": 0},
      {"measurement": "Plant response rating, Bromegrass, Downy", "setting": "[9]; [20]", "value": 0},
      {"measurement": "Plant response rating, Soybean", "setting": "[10]; [21]", "value": 75},
      {"measurement": "Plant response rating, Soybean", "setting": "[10]; [15]", "value": 75},
      {"measurement": "Plant response rating, Soybean", "setting": "[10]; [16]", "value": 85},
      {"measurement": "Plant response rating, Soybean", "setting": "[10]; [17]", "value": 85},
      {"measurement": "Plant response rating, Soybean", "setting": "[10]; [18]", "value": 0},
      {"measurement": "Plant response rating, Soybean", "setting": "[10]; [19]", "value": 0},
      {"measurement": "Plant response rating, Soybean", "setting": "[10]; [20]", "value": 5},
      {"measurement": "Plant response rating, Blackgrass", "setting": "[11]; [21]", "value": 30},
      {"measurement": "Plant response rating, Blackgrass", "setting": "[11]; [14]", "value": 40},
      {"measurement": "Plant response rating, Blackgrass", "setting": "[11]; [15]", "value": 35},
      {"measurement": "Plant response rating, Blackgrass", "setting": "[11]; [16]", "value": 35},
      {"measurement": "Plant response rating, Blackgrass", "setting": "[11]; [17]", "value": 50},
      {"measurement": "Plant response rating, Blackgrass", "setting": "[11]; [18]", "value": 0},
      {"measurement": "Plant response rating, Blackgrass", "setting": "[11]; [19]", "value": 0},
      {"measurement": "Plant response rating, Blackgrass", "setting": "[11]; [20]", "value": 5},
      {"measurement": "Plant response rating, Surinam Grass", "setting": "[12]; [21]", "value": 10},
      {"measurement": "Plant response rating, Surinam Grass", "setting": "[12]; [15]", "value": 25},
      {"measurement": "Plant response rating, Surinam Grass", "setting": "[12]; [16]", "value": 35},
      {"measurement": "Plant response rating, Surinam Grass", "setting": "[12]; [17]", "value": 75},
      {"measurement": "Plant response rating, Surinam Grass", "setting": "[12]; [18]", "value": 0},
      {"measurement": "Plant response rating, Surinam Grass", "setting": "[12]; [19]", "value": 0},
      {"measurement": "Plant response rating, Surinam Grass", "setting": "[12]; [20]", "value": 55},
      {"measurement": "Plant response rating, Ragweed", "setting": "[13]; [21]", "value": 70},
      {"measurement": "Plant response rating, Ragweed", "setting": "[13]; [15]", "value": 75},
      {"measurement": "Plant response rating, Ragweed", "setting": "[13]; [16]", "value": 80},
      {"measurement": "Plant response rating, Ragweed", "setting": "[13]; [17]", "value": 80},
      {"measurement": "Plant response rating, Ragweed", "setting": "[13]; [18]", "value": 65},
      {"measurement": "Plant response rating, Ragweed", "setting": "[13]; [19]", "value": 65},
      {"measurement": "Plant response rating, Ragweed", "setting": "[13]; [20]", "value": 70}
    ]}
  ]
}
